Results as given in patent US20080317857A1, “V-Atpase Inhibitors of Use in the Treatment of Septic Shock” (Brane Discovery S.r.l., priority 2005, published 2008).

Tests used:
[1] = test system: murine encephalitogenic T lymphocytes in inflamed brain venules; assay: Intravital microscopy: lymphocyte recruitment in inflamed brain microcirculation; assay type: in vivo, mice (SJL); settings: cells treated with 50 μM for 1 h
Experimental: Murine encephalitogenic T lymphocytes were labeled with either green CMFDA (5-chloromethylfluorescein diacetate; Molecular Probes) or orange CMTMR (5-(and-6)-(((4-chloromethyl)benzoyl)amino)tetramethylrhodamine) (Molecular Probes). SJL young females (Harlan-Nossan, Udine, Italy) were housed and used according to current European Community rules. In order to inflame brain endothelium, mice were injected intraperitoneally with 12 μg lipopolysaccharide (LPS) (Escherichia coli 026:B6; Sigma) 5 to 6 hours before the intravital experiment was started. […] Fluorescence-labeled cells (2×10^6)/condition were slowly injected into the carotid artery through a digital pump. Images were visualized by using a silicon-intensified target videocamera (VE-1000 SIT; Dage MTI, Michigan City, Ind.) and a Sony SSM-125CE monitor and were recorded using a digital videocassette recorder (NV-DV10000; Panasonic).
Video analysis was performed by playback of digital videotapes. Vessel diameter (D), hemodynamic parameters, and the velocities of rolling were determined by using a personal computer-based system. The velocities of 20 or more consecutive freely flowing cells per venule were calculated.
From the velocity of the fastest cell in each venule (Vfast), we calculated the mean blood flow velocities (Vm): […]. […]

[2] = test system: Monocytes; assay: Chemotaxis assay, monocytes (transwell); assay type: cell-based; settings: Homo sapiens, Monocyte
Experimental: PMNs and monocytes migration was assessed using 1 or 3-μm pore size transwells (Bio-Coat Becton-Dickinson), while lymphocytes by using 5-μm pore size transwells.
Cells were in RPMI1640, containing 10% heat-inactivated Fetal Calf Serum (FCS) and 20 mM HEPES, pH 7.3, at 2×10^6/ml. 100 μl of cell suspension were added to the top well, and 600 μl of medium, containing chemoaftractants and test compound, were added to the bottom well. Migration was evaluated after 2 h for PMNs and monocytes and after 4 h for lymphocytes. fMLP 10 nM (PMNs and monocytes) and MIP-3β 100 nM (lymphocytes) were utilized as chemoattractants. After fixation with 1.5% glutaraldehyde, migrated cells were counted by fluorescence-activated cell sorting using polystyrene beads (Polyscience) as an internal standard (Campbell J. J. et al. J. Cell. Biol. 134, 255-266, 1996; Laudanna C. et al. J. Biol. Chem. 273, 46, 30306-30315, 1998).
Results are expressed as percentage of inhibition over control (=100%), and are the mean of three experiments.

[3] = test system: Lymphocytes; assay: Chemokine-induced rapid adhesion of lymphocytes to ICAM-1 (LFA-1 ligand); assay type: cell-based; settings: Homo sapiens, Lymphocyte
Experimental: Adhesion was performed on purified integrin ligands and was evaluated as reported in Constantin G. et al., Immunity, 16, 759-769, 2000. Briefly, primary naïve lymphocytes, polymorphonuclear neutrophils (PMNs) or monocytes were isolated form healthy donors. In other experiments, murine autoreactive T cells were obtained from SJL mice immunized with PLP139-151 as described (Piccio L. et al., J. Immunol. 168, 1940-1949, 2002). Cells were resuspended at 4×10^6/ml in PBS, CaCl2, MgCl2 1 mM, 10% FCS, pH 7.2. Adhesion assays were performed on eighteen well glass slides coated overnight at 4° C. with ligands for CR3 (fibrinogen) or LFA-1 (ICAM-1). 20 μl of cell suspension were added to the wells and stimulated at 37° C. with 5 μl of agonists prior to washing, fixation and computer-assisted enumeration of bound cells.
Integrin activation was measured as induction of rapid adhesion triggered by the classical chemoattractant N-formyl-L-methionyl-L-leucyl-phenylalanine (fMLP) (100 nM) or by the CC chemokine MIP3β (CCL19, 1 μM). PMNs and monocytes were triggered to adhere to fibrinogen (CR3 ligand); naive human lymphocytes or murine encephalitogenic T cells were triggered to adhere to ICAM-1 (LFA-1 ligand). Triggered adhesion was evaluated after 2 min of stimulation under static conditions. The cells were pretreated at 37° C. for 30-60 min with the indicated concentrations of the test compound. Results are expressed as percentage of inhibition over control (=100%) and are the mean of three experiments in the case of human leukocytes. Results are expressed as mean counts and are the mean counts±S.D of three experiments and are the mean of three experiments in the case of murine encephalitogenic lymphocytes.
Integrin activation was measured as induction of rapid adhesion triggered by the “classical” chemoattractant fMLP (100 nM) or by the CC chemokine MIP3β(CCL19, 1 μM). PMNs were triggered to adhere to fibrinogen (CR3 ligand); lymphocytes were triggered to adhere to ICAM-1 (LFA-1 ligand).

## COC(=O)c1[nH]c2cc(OC)c(OC)cc2c1-c1ccc(OC)cc1 [Example 1]
[1]
  autoreactive lymphocyte rolling: no effect
  sticking/firm arrest: highly blocked
[2]; [cpd] 2.5 μM, read-out: Inhibition of Chemotaxis (%) Monocytes (fMLP)
  inhibition at 2.5 µM: 10.5%
[2]; [cpd] 5 μM, read-out: Inhibition of Chemotaxis (%) Monocytes (fMLP) (converted)
  inhibition at 5 µM: 15.5%
[2]; [cpd] 10 μM, read-out: Inhibition of Chemotaxis (%) Monocytes (fMLP) (converted)
  inhibition at 10 µM: 18.3%
[2]; [cpd] 25 μM, read-out: Inhibition of Chemotaxis (%) Monocytes (fMLP) (converted)
  inhibition at 25 µM: 47.4%
[2]; [cpd] 50 μM, read-out: Inhibition of Chemotaxis (%) Monocytes (fMLP) (converted)
  inhibition at 50 µM: 46.3%
[2]; [cpd] 100 μM, read-out: Inhibition of Chemotaxis (%) Monocytes (fMLP) (converted)
  inhibition at 100 µM: 75.5%
[3]; [cpd] 2.5 μM, read-out: Inhibition of Adhesion (%) Lymphocytes (MIP3-β)
  inhibition at 2.5 µM: 32.4%
[3]; [cpd] 5 μM, read-out: Inhibition of Adhesion (%) Lymphocytes (MIP3-β) (converted)
  inhibition at 5 µM: 41.2%
[3]; [cpd] 10 μM, read-out: Inhibition of Adhesion (%) Lymphocytes (MIP3-β) (converted)
  inhibition at 10 µM: 42.6%
[3]; [cpd] 25 μM, read-out: Inhibition of Adhesion (%) Lymphocytes (MIP3-β) (converted)
  inhibition at 25 µM: 60.8%
[3]; [cpd] 50 μM, read-out: Inhibition of Adhesion (%) Lymphocytes (MIP3-β) (converted)
  inhibition at 50 µM: 61.8%
[3]; [cpd] 100 μM, read-out: Inhibition of Adhesion (%) Lymphocytes (MIP3-β) (converted)
  inhibition at 100 µM: 98.6%
